Holding throughout (assay type): in vivo
For experiment [1], the system named is annual ragweed (Ambrosia artemisiifolia L.). Kind of experiment: Test Example 11: pot test, soil treatment, visual growth inhibition. To be noted: soil treatment, 28th day after treatment, read-out: Growth inhibition rate (%) of annual ragweed Measured value. As to the method: Upland field soil was put into a 1/300,000 ha pot, and seeds of annual ragweed (Ambrosia artemisiifolia L.) were sown. On the next day, predetermined amounts of ONEHOPE NYUZAI (tradename), Click (tradename), Mikado (tradename) and a wettable powder containing bicyclopyrone prepared in accordance with a conventional formulation method were diluted with water (in an amount corresponding to 1,000 L/ha) and applied for soil treatment by a small sprayer.
On the 28th day after treatment, the state of growth of the annual ragweed was visually observed to determine the growth inhibition rate (%). The growth inhibition rate (%) (measured value) and the growth inhibition rate (%) calculated in the same manner as in the above Test Example 1 are shown in Table 11.

Experiment [2] has as its system wild oat (Avena fatua L.). Kind of experiment: Test Example 4: pot test, soil treatment, visual growth inhibition. To be noted: soil treatment, 28th day after treatment, read-out: Growth inhibition rate (%) of wild oat Measured value. As to the method: Upland field soil was put into a 1/1,000,000 ha pot, and seeds of wild oat (Avena fatua L.) were sown. On the next day, predetermined amounts of ONEHOPE NYUZAI (tradename), Click (tradename) and a wettable powder containing bicyclopyrone prepared in accordance with a conventional formulation method were diluted with water (in an amount corresponding to 1,000 L/ha) and applied for soil treatment by a small sprayer.
On the 28th day after treatment, the state of growth of the wild oat was visually observed to determine the growth inhibition rate (%). The growth inhibition rate (%) (measured value) and the growth inhibition rate (%) calculated in the same manner as in the above Test Example 1 are shown in Table 4.

The subject of experiment [3] is common cocklebur (Xanthium strumarium L.). Kind of experiment: Test Example 1: pot test, foliar treatment, visual growth inhibition. To be noted: foliar treatment at 4.3 to 4.8-leaf stage, 22nd day after treatment, read-out: Growth inhibition rate (%) of common cocklebur Measured value. An excerpt: In the present invention, a synergistic effect means a higher herbicidal activity of three active ingredients combined, than the simple sum of the respective herbicidal activities of the three active ingredients (the expected activity). The activity expected by the combination of three active ingredients can be calculated as follows (Colby S.R., "Weed", vol. 15, p. 20-22, 1967). […] Upland field soil was put into a 1/300,000 ha pot, and seeds of common cocklebur (Xanthium strumarium L.) were sown. […] Click, manufactured by BASF) and EC formulation containing dimethenamid-P as an active ingredient (tradename: Spectrum, manufactured by BASF) were diluted with water (in an amount corresponding to 1,000 L/ha) and applied for foliar treatment by a small sprayer. On the 22nd day after treatment, the state of growth of the common cocklebur was visually observed to determine the growth inhibition rate (%) in accordance with the following evalution standard. The growth inhibition rate (%) (measured value) and the growth inhibition rate (%) (calculated value) calculated by the Colby's formula are shown in Table 1.

This note sets out measurements from patent EP2832223A1, “HERBICIDAL COMPOSITION” (Ishihara Sangyo Kaisha, Ltd., priority 2012, dated 2013).

As usually defined, the inhibition is the drop in the measured response relative to a control, in per cent. On to `COc1cc(OC)nc(NC(=O)NS(=O)(=O)c2ncccc2C(=O)N(C)C)n1` [Nicosulfuron, 2-(4,6-dimethoxypyrimidin-2-ylcarbamoylsulfamoyl)-N,N-dimethylnicotinamide], for which, in experiment [1] (100 g/ha), the inhibition at 100 g/ha worked out at 0%. For the same compound, the figures for the inhibition at 30 g/ha in experiment [2] (30 g/ha) and in experiment [3] (30 g/ha) were 30% and 0%, respectively.
Take `CCNc1nc(Cl)nc(NC(C)(C)C)n1` [Terbuthylazine, N^2-tert-butyl-6-chloro-N^4-ethyl-1,3,5-triazine-2,4-diamine]: in experiment [1] (200 g/ha), the inhibition at 200 g/ha came to 20%. The inhibition at 500 g/ha was 15% in experiment [2] (500 g/ha) and 10% in experiment [3] (500 g/ha).
